Our source for the CC50 and EC50 values is patent US20250034182A1, “PHOSPHOLIPID COMPOUNDS AND METHODS OF MAKING AND USING THE SAME” (priority 2021, published 2025).

Where two headings read alike, the source gives them in different places.

Common to all, as to type: cell-based
Data set [1] can be described thus: HCV Replicon 1B CC50, calcein AM (Example Q). Conditions: calcein AM fluorescence, read-out: HCV Replicon 1B CC50 (nM) (per Ex. Q). Here is the method:
(§1) Compounds were serially diluted in ten steps of 1:3 dilutions in 384-well plates. All serial dilutions were performed in four replicates per compound within the same 384-well plate. An HCV protease inhibitor ITMN-191 at […] was added as a control of 100% inhibition of HCV replication while puromycin at 10 mM was included as a control of 100% cytotoxicity. To each well of a black polystyrene 384-well plate (Greiner Bio-one, Monroe, NC), 90 μL of cell culture medium (without Geneticin) containing 2000 suspended HCV replicon cells was added with a Biotek μFlow workstation. For compound transfer into cell culture plates, 0.4 μL of compound solution from the compound serial dilution plate was transferred to the cell culture plate on a Biomek FX workstation. The DMSO concentration in the final assay wells was 0.44%. The plates were incubated for 3 days at 37° C. with 5% CO2 and 85% humidity. The HCV replicon assay was a multiplex assay, able to assess both cytotoxicity and antireplicon activity from the same well. The CC50 assay was performed first. The media in the 384-well cell culture plate was aspirated, and the wells were washed four times with 100 μL of PBS each, using a Biotek ELX405 plate washer. A volume of 50 μL of a solution containing 400 nM calcein AM (Anaspec, Fremont, CA) in 1×PBS was added to each well of the plate with a Biotek μFlow workstation. The plate was incubated for 30 min at room temperature before the fluorescence signal (excitation 490 nm, emission 520 nm) was measured with a Perkin-Elmer Envision plate reader. The EC50 assay was performed in the same wells as the CC50 assay. The calcein-PBS solution in the 384-well cell culture plate was aspirated with a Biotek ELX405 plate washer. A volume of 20 μL of Dual-Glo luciferase buffer (Promega, Madison, WI) was added to each well of the plate with a Biotek μFlow Workstation. The plate was incubated for 10 min at room temperature. A volume of 20 μL of a solution containing a 1:100 mixture of Dual-Glo Stop & Glo substrate (Promega, Madison, WI) and Dual-Glo Stop & Glo buffer (Promega, Madison, WI) was added to each well of the plate with a Biotek μFlow Workstation. The plate was then incubated at room temperature for 10 min before the luminescence signal was measured with a Perkin-Elmer Envision Plate Reader.

The subject of data set [2] is Respiratory syncytial virus recombinant with luciferase (RSV-Luc5) in HEp-2 cells. The data set can be described thus: HEp-2 RSV-Luc5 384-well assay (EC50 RSVFLUC Hep2-384, Example R). Conditions: human respiratory syncytial virus, HEp-2, 72 h, read-out: RSV Hep-2 FLuc EC50 (nM) (per Ex. R). From the text:
HEp-2 cell line was purchased from ATCC (Manassas, VA Cat #CCL-23) and maintained in Dulbecco's […] (DMEM) (Corning, New York, NY, Cat #15-018CM) supplemented with 10% fetal bovine serum (FBS) (Hyclone, Logan, UT, Cat #SH30071-03) and 1× Penicillin-Streptornycin-L-Glutamine (Corning, New York, NY, Cat #30-009-CI). Cells were passaged 2 times per week to maintain sub-confluent densities and were used for experiments at passage 5-20. Respiratory syncytial virus recombinant with luciferase (RSV-Luc5) direct pelleted virus (≥1×107 TCID50/ml) was purchased from Microbiologics (Saint Cloud, MN). Viral replication was determined in HEp-2 cells in the following manner.
Compounds are prepared in 384-well polypropylene plates (Greiner, Monroe, NC, Cat #784201) with 8 compounds per plate in grouped replicates of 4 at 10 serially diluted concentrations (1:3).
HEp-2 cells were suspended in DMEM (supplemented with 10% FBS and 1×Penicillin-Streptonycin-L-Glutimine) and 60 μL of 4,000 cells per well were seeded into 384-well plates (Greiner, Monroe, NC, Cat #781080) using Biotek MultiFlo dispenser. After overnight incubation at 37° C. and 5% CO2, 0.4 uL of three-fold serial dilutions of compound was added to each well using a Biomek FX pipette station. RSV-Luc5 viruses were diluted in DMEM (supplemented with 10% FBS and 1× Penicillin-Streptonycin-L-Glutainie) at an MOI=0.5. Virus suspension was added to each 384-well compound plate at 20 uL per well using a Biotek MultiFlo dispenser. The assay plates were incubated for 3 days at 37° C. and 5% CO2. At the end of incubation, One-Glo reagent (Promega, Madison, WI, Cat #E6120) was prepared. The assay plate and the reagent were equilibrated to room temperature for 30 minutes. 50 uL per well of medium was removed from assay plate and 40 uL per well of One-Glo reagent was added to each plate by Biomek FX. The plates were sat at room temp for 15 minutes. Viral replication was then assessed by measuring luminescence signal using and Envision plate reader. Remdesivir was used as positive control and DMSO was used as negative control. Values were normalized to the positive and negative controls (as 0% and 100% replication, respectively) and data was fitted using non-linear regression analysis by Gilead's dose response tool. The EC50 value for each compound was then determined as the concentration reducing the viral replication by 50%.

A further data set has as its system HCV Replicon 1B. As to the kind of experiment: HCV Replicon 1B EC50 (Example Q). The following applies: Hepatitis C virus, 72 h, read-out: HCV Replicon 1B EC50 (nM) (per Ex. Q). Here is the method: as §1
(Replicon systems follow genome replication, usually without infectious particles.)

Where [3] appears, read: HCV replicon cells, 3 days, Dual-Glo luciferase.

As usually defined, the CC50 is the concentration that lowers cell viability or growth by half. As usually defined, the EC50 is the concentration needed to bring the measured effect to its halfway point. On to `CCCCCCCCCCCCCCCCCCOC[C@H](COP(=O)(O)OC[C@@]1(C#N)O[C@@H](c2ccc3c(N)ncnn23)[C@H](O)[C@@H]1O)OCc1cc(F)cc(C#N)c1` [Compound 1, ((2R,3S,4R,5S)-5-(4-aminopyrrolo[2,1-f][1,2,4]triazin-7-yl)-2-cyano-3,4-dihydroxytetrahydrofuran-2-yl)methyl ((R)-2-((3-cyano-5-fluorobenzyl)oxy)-3-(octadecyloxy)propyl) hydrogen phosphate], for which, in data set [1] (HCV replicon cells (1B)), the CC50 at 3 days was > 44400 nM. Besides, the EC50 in data set [2] worked out at 100 nM; with HCV Replicon 1B (setting [3]), 13800 nM.

For `CCCCCCCCCCCCCCCCCCOC[C@H](COP(=O)(O)OC[C@@]1(C#N)O[C@@H](c2ccc3c(N)ncnn23)[C@H](O)[C@@H]1O)OCc1ccc(C#N)c(Cl)c1` [Compound 7, ((2R,3S,4R,5S)-5-(4-aminopyrrolo[2,1-f][1,2,4]triazin-7-yl)-2-cyano-3,4-dihydroxytetrahydrofuran-2-yl)methyl ((R)-2-((3-chloro-4-cyanobenzyl)oxy)-3-(octadecyloxy)propyl) hydrogen phosphate], the CC50 at 3 days in data set [1] (HCV replicon cells (1B)) is > 44400 nM. Moreover, the EC50 worked out at 84 nM in data set [2] and 16700 nM in the data set on HCV Replicon 1B (setting [3]).

Turning to `CCCCCCCCCCCCCCCCCCOC[C@H](COP(=O)(O)OC[C@@]1(C#N)O[C@@H](c2ccc3c(N)ncnn23)[C@H](O)[C@@H]1O)Oc1cccc(C#N)n1` [Compound 21, ((2R,3S,4R,5S)-5-(4-aminopyrrolo[2,1-f][1,2,4]triazin-7-yl)-2-cyano-3,4-dihydroxytetrahydrofuran-2-yl)methyl ((R)-2-((6-cyanopyridin-2-yl)oxy)-3-(octadecyloxy)propyl) hydrogen phosphate], in data set [1] (HCV replicon cells (1B)), the CC50 at 3 days is > 44400 nM. The EC50 in data set [2] was 136 nM; in the data set on HCV Replicon 1B (setting [3]), 13300 nM.

On to `CCCCCCCCCCCCCCCCC[C@H](COP(=O)(O)OC[C@@]1(C#N)O[C@@H](c2ccc3c(N)ncnn23)[C@H](O)[C@@H]1O)OCc1cc(F)cc(C#N)c1` [Compound 36, ((2R,3S,4R,5S)-5-(4-aminopyrrolo[2,1-f][1,2,4]triazin-7-yl)-2-cyano-3,4-dihydroxytetrahydrofuran-2-yl)methyl ((R)-2-((3-cyano-5-fluorobenzyl)oxy)nonadecyl) hydrogen phosphate], for which the CC50 at 3 days in data set [1] (HCV replicon cells) is > 44400 nM. The EC50 in data set [2] is 155 nM; in the data set on HCV Replicon 1B, 26300 nM.

For `CCCCCCCCCCCCCCCCCC[C@@H](COP(=O)(O)OC[C@@]1(C#N)O[C@@H](c2ccc3c(N)ncnn23)[C@H](O)[C@@H]1O)OCc1cc(F)cc(C#N)c1` [Compound 37, ((2R,3S,4R)-5-(4-aminopyrrolo[2,1-f][1,2,4]triazin-7-yl)-2-cyano-3,4-dihydroxytetrahydrofuran-2-yl)methyl ((S)-2-((3-cyano-5-fluorobenzyl)oxy)icosyl) hydrogen phosphate], the CC50 at 3 days in data set [1] (HCV replicon cells (1B)) was > 44400 nM. In addition, the concentration for a half-maximal effect (EC50) is 304 nM in data set [2] and 22500 nM in the data set with HCV Replicon 1B (setting [3]).

Take `CCCCCCCCCCCCCCCCCCCC[C@H](COP(=O)(O)OC[C@@]1(C#N)O[C@@H](c2ccc3c(N)ncnn23)[C@H](O)[C@@H]1O)Oc1cccc(C#N)c1` [Compound 51, ((2R,3S,4R,5S)-5-(4-aminopyrrolo[2,1-f][1,2,4]triazin-7-yl)-2-cyano-3,4-dihydroxytetrahydrofuran-2-yl)methyl ((R)-2-(3-cyanophenoxy)docosyl) hydrogen phosphate]: the CC50 at 3 days in data set [1] (HCV replicon cells (1B)) is > 44400 nM. In addition, the EC50 is 421 nM in data set [2] and 14600 nM with HCV Replicon 1B (setting [3]).

As to `CCCCCCCCCCCCCCCCCOC[C@H](COP(=O)(O)OC[C@@]1(C#N)O[C@@H](c2ccc3c(N)ncnn23)[C@H](O)[C@@H]1O)OCc1cc(F)cc(C#N)c1` [Compound 53, ((2R,3S,4R,5S)-5-(4-aminopyrrolo[2,1-f][1,2,4]triazin-7-yl)-2-cyano-3,4-dihydroxytetrahydrofuran-2-yl)methyl ((R)-2-((3-cyano-5-fluorobenzyl)oxy)-3-(heptadecyloxy)propyl) hydrogen phosphate], the CC50 at 3 days in data set [1] (HCV replicon cells (1B)) was > 44400 nM. Also, the results for the 50% effective concentration (EC50) (in data set [2]; with HCV Replicon 1B (setting [3])) were 113 nM and 15500 nM, respectively.
